Experimental data reported in patent US11198687B2, “Heteroaryl allosteric modulators of nicotinic acetylcholine receptors” (Merck Sharp & Dohme Corp., priority 2017, dated 2021).
pEC50: −log10 of the molar value. Where two headings read alike, the source gives them in different places.

Molecular target: human α7 nAChR (Homo sapiens, UniProt P36544)
Test: Automated patch-clamp electrophysiology functional assay (Assay A)
Format: cell-based
Settings: IonFlux HT whole-cell population patch, HEK cell line stably expressing human RIC-3 and human α7, 40 μM acetylcholine
Procedure: The α7 nAChR positive allosteric modulator (PAM) activity of the present compounds may be tested using assays known in the art. […] The assay was performed using the IonFlux HT in a whole-cell, population patch configuration. See Golden et al. Assay Drug Dev. Technol. (2011) 9:608-619. The compounds were assessed for their ability to modulate the function of the human α7 nAChR stably expressed in a HEK cell line both in the presence, and in the absence of the natural α7 agonist acetylcholine. By performing a series of such measurements at different concentrations, the effective concentration of the α7 nAChR PAMs (EC50) was determined. See Spencer et al. Assay Drug Dev. Technol. (2012) 10:313-324.
Direct activation of α7 (agonism), and potentiation of acetylcholine-evoked α7 currents was determined as follows:
Automated Patch-Clamp Electrophysiology Functional Assay (Assay A)
Automated patch-clamp electrophysiology was performed using the IonFlux HT (Fluxion Biosciences Inc., San Francisco, Calif.) in the whole-cell, population patch configuration. Test compounds were assessed for their ability to modulate the function of the α7 nicotinic acetylcholine receptor both in the presence, and in the absence of the natural α7 agonist acetylcholine. A HEK cell line stably expressing both human RIC-3 and human α7 (PrecisION hnAChR α7/RIC-3, Eurofins Pharma, St. Charles, Mo.) was cultured in 175 cm^2 triple-layer tissue culture flasks to no more than 90% confluency in DMEM/F-12 growth media supplemented with 10% heat-inactivated fetal bovine serum, 1% non-essential amino acids, 0.625 μg/mL Puromycin, and 400 μg/mL Geneticin. Immediately prior to assay, cells were detached by first aspirating growth media, rinsing with Dulbecco's phosphate buffered saline, and then adding 10 mL of Accutase (Innovative Cell Technologies, San Diego, Calif.) to the flask and then incubating at 37° C. for 5 minutes. Detached cells were then recovered by the addition of 40 mL of CHO-serum-free media supplemented with 25 mM HEPES, and rocked gently in a 50 mL conical tube for 20 minutes prior to patch-clamp assay. […] The cell suspension was added to the cell inlet wells on an IonFlux HT population patch plate which had previously been rinsed and primed with deionized H2O. Test compounds were serially diluted in DMSO and then resuspended to the final test concentration in external recording solution, with, or without 40 μM acetylcholine added to the external recording solution; test compounds were then transferred to the lonFlux HT population patch plate. Internal recording solution (110 mM TrisPO4, 28 mM TrisBase, 0.1 mM CaCl2, 2 mM MgCl2, 11 mM EGTA, 4 mM MgATP) was added to the internal recording solution inlet wells on the IonFlux HT patch plate previously loaded with cells and test compounds, and the plate loaded into the IonFlux HT instrument. A protocol was executed on the IonFlux HT to trap the cells, break into the cells, and establish the whole-cell recording configuration; cells were voltage-clamped at a holding potential of −60 mV for the duration of the experiment, all experiments were conducted at room temperature, and the IonFlux HT injection pressure was 8 psi for solution applications. Upon establishing the whole-cell configuration, external recording solution was perfused into the recording chambers for 120 seconds and then 40 μM acetylcholine was applied for 1 second and immediately washed off with external recording solution for 60 seconds. The 40 μM acetylcholine-evoked α7 current served as the current response to which subsequent test compound effects, in the presence, or in the absence of 40 μM acetylcholine would be quantified relative to. Next, test compounds were evaluated at multiple concentrations for their ability to induce, or modulate α7 current responses; three concentrations of test compound were evaluated in ascending dose fashion per recording.

Sequence of human α7 nAChR (P36544 23-502): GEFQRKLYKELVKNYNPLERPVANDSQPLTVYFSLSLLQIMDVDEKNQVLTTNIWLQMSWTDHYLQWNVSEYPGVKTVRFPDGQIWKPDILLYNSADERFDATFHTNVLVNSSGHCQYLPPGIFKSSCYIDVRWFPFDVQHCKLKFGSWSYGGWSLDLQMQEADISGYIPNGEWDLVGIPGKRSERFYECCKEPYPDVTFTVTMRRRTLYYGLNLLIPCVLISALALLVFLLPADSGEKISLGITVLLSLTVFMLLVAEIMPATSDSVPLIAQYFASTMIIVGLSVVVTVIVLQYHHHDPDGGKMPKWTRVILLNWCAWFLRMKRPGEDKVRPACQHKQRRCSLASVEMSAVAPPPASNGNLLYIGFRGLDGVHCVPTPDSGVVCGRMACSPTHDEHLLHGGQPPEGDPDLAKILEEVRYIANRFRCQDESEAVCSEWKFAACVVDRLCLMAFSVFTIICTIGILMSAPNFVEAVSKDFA

| Compound | pEC50 (read-out: α7 nAChR EC50) | pEC50 (read-out: α7 nAChR Potency) |
| --- | --- | --- |
| CC(C)c1noc([C@H]2[C@H](c3ncc(S(N)(=O)=O)s3)C2(C)C)n1 (racemic) [Example D5, 2-{trans-2,2-Dimethyl-3-[3-(propan-2-yl)-1,2,4-oxadiazol-5-yl]cyclopropyl}-1,3-thiazole-5-sulfonamide] | 5.38 | 5.30 to 6.30 |
| CC1(C)[C@@H](c2ccc(S(N)(=O)=O)nc2)[C@@H]1c1nc(C2CC(F)(F)C2)no1 [Example B8, 5-{(1S,3S)-3-[3-(3,3-Difluorocyclobutyl)-1,2,4-oxadiazol-5-yl]-2,2-dimethylcyclopropyl}pyridine-2-sulfonamide] | – | 5.30 to 6.30 |
| CC1(C)[C@@H](c2ccc(S(N)(=O)=O)nc2)[C@@H]1c1nc(-c2cccc(C(F)(F)F)c2)no1 [Example B5, 5-[(1S,3S)-2,2-Dimethyl-3-{3-[3-(trifluoromethyl)phenyl]-1,2,4-oxadiazol-5-yl}cyclopropyl]pyridine-2-sulfonamide] | 5.52 | 5.30 to 6.30 |
| CC1(C)[C@H](c2ccc(S(N)(=O)=O)nc2)[C@H]1c1nc(C2CC(F)(F)C2)no1 [Example A11, 5-{(1R,3R)-3-[3-(3,3-Difluorocyclobutyl)-1,2,4-oxadiazol-5-yl]-2,2-dimethylcyclopropyl}pyridine-2-sulfonamide] | 5.52 | 5.30 to 6.30 |
| CC1(C)[C@@H](c2nc(-c3ccccc3)no2)[C@@H]1c1ncc(S(N)(=O)=O)s1 [Example 6, 2-[(1S,3S)-2,2-dimethyl-3-(3-phenyl-1,2,4-oxadiazol-5-yl)cyclopropyl]-1,3-thiazole-5-sulfonamide] | 6.23 | 5.30 to 6.30 |
| CC1(C)[C@H](c2ccc(S(N)(=O)=O)nc2)[C@H]1c1nc(-c2ccccc2)no1 [Example A1, 5-[(1R,3R)-2,2-Dimethyl-3-(3-phenyl-1,2,4-oxadiazol-5-yl)cyclopropyl]pyridine-2-sulfonamide] | 5.82 | 5.30 to 6.30 |
| CC1(C)[C@@H](c2ccc(S(N)(=O)=O)cn2)[C@@H]1c1nc(C2CC2)no1 [Example F8, 6-[(1S,3S)-3-(3-Cyclopropyl-1,2,4-oxadiazol-5-yl)-2,2-dimethylcyclopropyl]pyridine-3-sulfonamide] | 5.85 | 5.30 to 6.30 |
| CC1(C)[C@H](c2ccc(S(N)(=O)=O)nc2)[C@H]1c1nc(-c2cncc(C(F)(F)F)c2)no1 [Example A2, 5-[(1R,3R)-2,2-Dimethyl-3-{3-[5-(trifluoromethyl)pyridin-3-yl]-1,2,4-oxadiazol-5-yl}cyclopropyl]pyridine-2-sulfonamide] | 5.85 | 5.30 to 6.30 |
| CC(C)(C)c1noc([C@H]2[C@H](c3ccc(S(N)(=O)=O)nc3)C2(C)C)n1 [Example B12, 5-[(1S,3S)-3-(3-tert-Butyl-1,2,4-oxadiazol-5-yl)-2,2-dimethylcyclopropyl]pyridine-2-sulfonamide] | 5.80 | 5.30 to 6.30 |
| CC1(C)[C@@H](c2ccc(S(N)(=O)=O)nc2)[C@@H]1c1nc(-c2ccccc2)no1 [Example 3, 5-[(1S,3S)-2,2-Dimethyl-3-(3-phenyl-1,2,4-oxadiazol-5-yl)cyclopropyl]pyridine-2-sulfonamide] | 6.42 | 6.30 to 7.00 |
| CC1(C)[C@@H](c2ccc(S(N)(=O)=O)nc2)[C@@H]1c1noc(-c2c(F)cccc2F)n1 (racemic) [Example C12, 5-{trans-3-[5-(2,6-Difluorophenyl)-1,2,4-oxadiazol-3-yl]-2,2-dimethylcyclopropyl}pyridine-2-sulfonamide] | 5.92 | 5.30 to 6.30 |
| CC1(C)[C@H](c2ccc(S(N)(=O)=O)nc2)[C@H]1c1nc(-c2cncc(F)c2)no1 [Example A9, 5-{(1R,3R)-3-[3-(5-Fluoropyridin-3-yl)-1,2,4-oxadiazol-5-yl]-2,2-dimethylcyclopropyl}pyridine-2-sulfonamide] | 5.30 | 5.30 to 6.30 |
| CC(C)c1noc([C@H]2[C@H](c3ccc(S(N)(=O)=O)nc3)C2(C)C)n1 [Example B13, 5-{(1S,3S)-2,2-Dimethyl-3-[3-(propan-2-yl)-1,2,4-oxadiazol-5-yl]cyclopropyl}pyridine-2-sulfonamide] | – | 5.30 to 6.30 |
| CC1(C)[C@@H](c2ccc(S(N)(=O)=O)nc2)[C@@H]1c1nc(C2CCC2)no1 [Example B9, 5-[(1S,3S)-3-(3-Cyclobutyl-1,2,4-oxadiazol-5-yl)-2,2-dimethylcyclopropyl]pyridine-2-sulfonamide] | 6.21 | 5.30 to 6.30 |
| CC1(C)[C@@H](c2ccc(S(N)(=O)=O)nc2)[C@@H]1c1ncc(C2CCCC2)s1 [Example B16, 5-[(1S,3S)-3-(5-Cyclopentyl-1,3-thiazol-2-yl)-2,2-dimethylcyclopropyl]pyridine-2-sulfonamide] | 5.82 | 5.30 to 6.30 |
| CC1(C)[C@H](c2ccc(S(N)(=O)=O)cn2)[C@H]1c1nc(-c2cccc(C(F)(F)F)c2)no1 [Example E6, 6-[(1R,3R)-2,2-Dimethyl-3-{3-[3-(trifluoromethyl)phenyl]-1,2,4-oxadiazol-5-yl}cyclopropyl]pyridine-3-sulfonamide] | – | 5.30 to 6.30 |
| NS(=O)(=O)c1ccc(C2CC2c2nc(-c3ccccc3)no2)cn1 (racemic) [Example C5, 5-[trans-2-(3-Phenyl-1,2,4-oxadiazol-5-yl)cyclopropyl]pyridine-2-sulfonamide] | 5.96 | 5.30 to 6.30 |
| NS(=O)(=O)c1ccc([C@@H]2C[C@H]2c2nc(-c3cccc(F)c3)no2)cn1 (racemic) [Example C8, 5-{trans-2-[3-(3-Fluorophenyl)-1,2,4-oxadiazol-5-yl]cyclopropyl}pyridine-2-sulfonamide] | 6.41 | 6.30 to 7.00 |
| COc1ccc(Cl)cc1-c1noc([C@@H]2[C@@H](c3ccc(S(N)(=O)=O)nc3)C2(C)C)n1 [Example A6, 5-{(1R,3R)-3-[3-(5-Chloro-2-methoxyphenyl)-1,2,4-oxadiazol-5-yl]-2,2-dimethylcyclopropyl}pyridine-2-sulfonamide] | 5.82 | 5.30 to 6.30 |
| CC1(C)[C@@H](c2ccc(S(N)(=O)=O)cn2)[C@@H]1c1nc(-c2cncc(F)c2)no1 [Example F11, 6-{(1S,3S)-3-[3-(5-Fluoropyridin-3-yl)-1,2,4-oxadiazol-5-yl]-2,2-dimethylcyclopropyl}pyridine-3-sulfonamide] | 5.47 | 5.30 to 6.30 |
| CC1(C)[C@@H](c2ccc(S(N)(=O)=O)nc2)[C@@H]1c1noc(-c2ccccc2)n1 (relative stereo) [Example 11, 5-[trans-2,2-Dimethyl-3-(5-phenyl-1,2,4-oxadiazol-3-yl)cyclopropyl]pyridine-2-sulfonamide] | 6.00 | 5.30 to 6.30 |
| CC1(C)[C@H](c2ccc(S(N)(=O)=O)nc2)[C@H]1c1nc(-c2cccc(F)c2)no1 [Example A7, 5-{(1R,3R)-3-[3-(3-Fluorophenyl)-1,2,4-oxadiazol-5-yl]-2,2-dimethylcyclopropyl}pyridine-2-sulfonamide] | 6.19 | 5.30 to 6.30 |
| CC1(C)[C@H](c2ccc(S(N)(=O)=O)cn2)[C@H]1c1nc(-c2ccc(F)cc2F)no1 [Example E5, 6-{(1R,3R)-3-[3-(2,4-Difluorophenyl)-1,2,4-oxadiazol-5-yl]-2,2-dimethylcyclopropyl}pyridine-3-sulfonamide] | 5.89 | 5.30 to 6.30 |
| CC1(C)[C@@H](c2ccc(S(N)(=O)=O)nc2)[C@@H]1c1ncc(-c2ccccc2)o1 [Example 8, 5-[(1S,3S)-2,2-Dimethyl-3-(5-phenyl-1,3-oxazol-2-yl)cyclopropyl]pyridine-2-sulfonamide] | 5.82 | 5.30 to 6.30 |
